The values below come from patent US20220362249A1, “METHODS FOR TREATING […]” (PTC Therapeutics MP, Inc., priority 2019, published 2022).

Data set [1] relates to blood Phe. Put plainly: Reduction of blood Phe in patients with PKU, randomized crossover of PTC923 vs sapropterin dihydrochloride. The conditions noted are these: for Mean (SD) blood Phe, At baseline: 20 mg/kg period, Day 1 pre-dose; for Least squares mean (SE) change from baseline in blood Phe / Mean (SD) blood Phe, Change / Mean (SD) blood Phe, On treatment: 20 mg/kg/day oral, 7 days; for Mean (SD) blood Phe, On treatment: mean of days 3, 5 and 7. The class given is in vivo, human. The procedure:
Following screening for eligibility, a 7-day run-in period commenced. Patients then received 7 days of once-daily oral treatment with either PTC923 20 mg/kg/day (“low dose”), or PTC923 60 mg/kg/day or sapropterin dihydrochloride, in a random order. PTC923 (formerly CNSA-001) is oral sepiapterin. Each patient was randomized to one of six treatment sequences (FIG. 2). The randomization in six different treatment sequences was intended to minimize carry over effect, treatment period effect, patient fatigue, and natural fluctuations in blood Phe levels. A 7-day washout period separated each active treatment period. Patients were asked to maintain their usual pre-study diet, including consumption of amino acid mixtures if prescribed, and were monitored throughout the study by a metabolic dietician.
Blood samples for measurement of Phe were taken on 7, 5, 3, and 1 days before randomization. During treatment periods, blood was taken pre-dose for day 1 and post-dose for days 3, 5 and 7. During the washout periods, blood was taken for measurement of Phe on days 1, 3, 5, and 7. All samples were taken under fasting conditions or no earlier than 3 hours following a meal and at the same time of day. Blood Phe was measured using a validated LC-MS-MS technique of dried blood sampling via Volumetric Absorptive Microsampling (VAMS®) using Mitra® 4-sampler clamshells, at a central bioanalytical laboratory (Agilex Biolabs Pty Ltd).
The main objective of the study was to assess the efficacy of PTC923 measured as the mean blood Phe change from baseline. The efficacy population consisted of all patients who were randomized and had blood Phe measurements before treatment and at days 3, 5 and 7 of treatment from at least one treatment period. The safety population consisted of all patients who were randomized and who received any dose of study treatment. The sample size calculation was based on an all-comers, placebo-controlled regulatory study of sapropterin with an observed mean decrease in blood Phe of 99 μmol/L and standard deviation of 220 μmol/L, and assumed a true mean decrease in blood Phe of 300 μmol/L with 80% power utilizing a 2-sided α of 0.05.
Response to PTC923 was evaluated by measuring the mean change from baseline in blood Phe (calculated as the mean of measurements at days 3, 5 and 7 of each treatment period). Day 1 pre-dose blood Phe concentrations for each treatment period served as the individual patient specific baseline for that period.
The change from baseline in blood Phe of each treatment period was modelled using a linear mixed model for repeated measures (MMRM). The efficacy model included fixed effects for baseline for each treatment period, treatment group, sequence, period, and a random subject effect within each sequence, with a first order autoregressive AR (1) covariance structure. No unplanned covariates were included.
Pairwise comparisons in changes from baseline in Phe were performed between each PTC923 treatment and sapropterin treatment by calculating the least squares means with Dunnet's method of adjustment for multiple comparisons. The estimated change in blood Phe levels, their standard errors (SE) and associated p-values were calculated for each pairwise comparison. Dunnet's method of adjustment was used to account for the multiple comparisons of the test groups against the control group. This adjustment ensured that the overall Type I error rate under the null hypothesis was maintained despite multiple test groups being compared to the single control group.
The overall mean changes in blood Phe for each treatment were calculated and the standard deviations (SD) were determined.
A prespecified sensitivity analysis excluded treatment periods where baseline Phe was <300 μmol/L and a responder analysis looked at patients with baselines ≥300 μmol/L who responded to sapropterin and/or to PTC923 treatment by ≥20% reduction.

A short description of data set [2]: Adverse events in patients with PKU on PTC923 or sapropterin dihydrochloride. The class given is in vivo, human. Conditions: 20 mg/kg. An excerpt:
PTC923 safety was monitored and adverse events (AEs) were coded using the Medical Dictionary for Regulatory Activities (MedDRA®) version 21.0. Treatment-emergent adverse events (TEAEs) were defined as AE that began on or after first dose of study drug. A TEAE was associated with the study treatment currently being received, or the last study treatment before its onset. A treatment-related TEAE was, in the judgment of the investigator possibly, probably or definitely related to treatment. A serious AE (SAE) was defined as resulting in death, life-threatening AE, inpatient hospitalization or prolongation of existing hospitalization, a persistent or significant disability/incapacity or a substantial disruption of the ability to conduct normal life functions, or a congenital anomaly/birth defect.

In data set [3] the test system is blood Phe. Conditions: standard deviation of 220 μmol/L; cited from earlier work.
Data set [4] deals with phenylalanine plasma concentrations. The conditions noted are these: cited from earlier work.
[5] abbreviates: Subjects with classical PKU (N = 11).

Where a name gives a salt, the structure may show the parent alone.

On to `C[C@H](O)[C@H](O)[C@H]1CNc2nc(N)[nH]c(=O)c2N1` [sapropterin dihydrochloride, reference compound], for which the “Proportion of patients achieving blood Phe <360 μmol/L” value in the data set on blood Phe [1] (20 mg/kg, n of 24) worked out at 42%. For the same compound, in the data set on blood Phe [1] (All subjects (N = 24)), the “Mean (SD) blood Phe, At baseline” value was 710.4 (370.0) μmol/L; the “Least squares mean (SE) change from baseline in blood Phe” value (shortened to “Least squares mean (SE) change”) is −91.5 (41.7) μmol/L; the “Mean (SD) blood Phe, Change” value is reported as −90.8 (226.9) μmol/L; the “Mean (SD) blood Phe, On treatment” value is 619.5 (475.3) μmol/L. Also, the “Least squares mean change from baseline in blood Phe to first Phe measurement (Day 3)” value in the data set on blood Phe [1] (Day 3, 20 mg/kg) was -72.3 µmol/L. Moreover, in the data set on blood Phe [1] (setting [5]), the “Mean (SD) blood Phe, At baseline” value is recorded as 903.5 (422.5) μmol/L; the “Mean (SD) blood Phe, Change” value is listed as 10.7 (221.6) μmol/L; the “Mean (SD) blood Phe, On treatment” value was 914.2 (538.7) μmol/L. Moreover, the “Least squares mean (SE) change” value in the data set on blood Phe [1] (Subjects with classical PKU (N = 11), dihydrochloride, 20 mg/kg/day) is -2.8 µmol/L. The “Least squares mean (SE) change” value in the data set with blood Phe [1] (Subjects with classical PKU (N = 11), listed as Sapropterin dihydrochloride, dihydrochloride, 20 mg/kg/day) was −2.8 (62.0) μmol/L. Besides, the “Least squares mean change from baseline in blood Phe” value with blood Phe [1] (group of 12 responders (Phe reduction ≥20%, baseline ≥300 μmol/L), 20 mg/kg) is -139.70 µmol/L. Further, the “Non-classical subjects normalized (blood phenylalanine less than 120 micromole per liter)” value with blood Phe [1] (non-classical subjects) was determined as 15.4%. Further, in data set [2], the “Patients reporting any adverse event” value is 21%, the “Patients reporting severe AE” value is 0% and the “Patients reporting treatment-related AE” value is reported as 0%. In addition, the “Headache (all-cause AE)” value in data set [2] (transient) is reported as 4%. In the data set with blood Phe [3], the “Observed mean decrease in blood Phe” value was 99 µmol/L. Further, the “Classical PKU subjects that respond to treatment (historically)” value in data set [4] was “about 10%”.
